From patent US20250026752A1, “POSITIVE ALLOSTERIC MODULATORS OF THE MUSCARINIC ACETYLCHOLINE RECEPTOR M4” (Vanderbilt University, priority 2021, published 2025)

Biological target: T1, human mAChR M4 (Homo sapiens, UniProt P08173)
T1 construct: expressed in transfected cells; host or cells: CHO-K1 (ATCC), stably expressing hM4 and Gqi5
T1 sequence (P08173 1-479): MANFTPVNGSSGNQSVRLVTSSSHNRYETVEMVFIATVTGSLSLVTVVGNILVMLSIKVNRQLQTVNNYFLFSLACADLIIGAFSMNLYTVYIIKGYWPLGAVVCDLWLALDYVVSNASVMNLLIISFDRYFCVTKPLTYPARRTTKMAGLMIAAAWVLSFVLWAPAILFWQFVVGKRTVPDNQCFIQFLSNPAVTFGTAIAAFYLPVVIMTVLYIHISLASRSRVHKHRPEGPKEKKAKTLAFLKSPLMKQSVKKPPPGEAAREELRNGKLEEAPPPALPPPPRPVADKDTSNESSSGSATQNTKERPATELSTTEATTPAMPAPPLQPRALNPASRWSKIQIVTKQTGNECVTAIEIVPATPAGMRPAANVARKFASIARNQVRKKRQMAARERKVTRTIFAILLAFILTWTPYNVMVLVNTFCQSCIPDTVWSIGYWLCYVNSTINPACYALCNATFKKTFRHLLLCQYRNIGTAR
Test: mAChR M4 cell-based functional assay: calcium flux (Fluo-4, FDSS), positive allosteric modulator activity on the EC20 acetylcholine response, hM4-Gqi5 CHO-K1 cells
Design: Emax: dose or concentration left out as unconfirmed
Conditions: for Emax at 30 µM: CHO-K1, human M4, % ACh maximum at 30 μM; for EC50: human M4, PAM activity on EC20 acetylcholine response, calcium flux, read-out: Human M4 EC50
How it was run: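 CHO-K1 cells stably expressing human M4 with chimeric Gqi5, loaded with Fluo-4 AM for 50 min at 37° C. Compounds (11-point, 1:3 dilutions) added first, then an acetylcholine EC20 at 144 s; calcium read on FDSS at 1 Hz. EC50 is the half-maximal increase above the EC20 baseline, four-parameter logistic fit.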

Row | Structure (SMILES) | Emax at 30 µM [%] | EC50 [nM] | Emax (CHO-K1) [%]
1 | Cc1ccc2nc(N(C)C)nc(N3CCc4ncc(C(F)(F)F)cc4C3)c2c1 [Compound 180, N,N,6-trimethyl-4-[3-(trifluoromethyl)-7,8-dihydro-5H-1,6-naphthyridin-6-yl]quinazolin-2-amine] | – | 710 | 90
2 | Cc1nc(N2CCc3ncc(N4CCOc5ncccc54)cc3C2)c2cc(C(F)(F)F)ccc2n1 [Compound 182, 1-[6-[2-methyl-6-(trifluoromethyl)quinazolin-4-yl]-7,8-dihydro-5H-1,6-naphthyridin-3-yl]-2,3-dihydropyrido[2,3-b][1,4]oxazine] | 81 | 3300 | –
3 | Cn1nccc1Nc1cnc2c(c1)CN(c1nc(N3CCOCC3)nc3ccc(F)cc13)CC2 [Compound 185, 6-(6-fluoro-2-morpholino-quinazolin-4-yl)-N-(2-methylpyrazol-3-yl)-7,8-dihydro-5H-1,6-naphthyridin-3-amine] | 83 | 390 | –
4 | Cc1noc(C)c1-c1cnc2c(c1)CN(c1nc(-c3c(C)noc3C)nc3ccc(Cl)cc13)CC2 [Compound 187, 4-[6-chloro-4-[3-(3,5-dimethylisoxazol-4-yl)-7,8-dihydro-5H-1,6-naphthyridin-6-yl]quinazolin-2-yl]-3,5-dimethyl-isoxazole] | 79 | 4150 | –
5 | Cc1nn(C)cc1-c1cnc2c(c1)CN(c1nc(-c3cn(C)nc3C)nc3ccc(Cl)cc13)CC2 [Compound 188, 6-chloro-2-(1,3-dimethylpyrazol-4-yl)-4-[3-(1,3-dimethylpyrazol-4-yl)-7,8-dihydro-5H-1,6-naphthyridin-6-yl]quinazoline] | 68 | 1910 | –
6 | Cc1ccc2nc(Nc3ccnn3C)nc(N3CCc4ncc(Nc5ccnn5C)cc4C3)c2c1 [Compound 189, 6-methyl-N-(2-methylpyrazol-3-yl)-4-[3-[(2-methylpyrazol-3-yl)amino]-7,8-dihydro-5H-1,6-naphthyridin-6-yl]quinazolin-2-amine] | 127 | 180 | –
7 | [2H]c1nc(N2CCc3ncc(C(F)(F)F)cc3C2)c2cc(F)ccc2n1 [Compound 190, 2-deuterio-6-fluoro-4-[3-(trifluoromethyl)-7,8-dihydro-5H-1,6-naphthyridin-6-yl]quinazoline] | 91 | 60 | –
8 | Cc1nn(C)cc1-c1cnc2c(c1)CN(c1nc(C3CC3)nc3ccc(Cl)cc13)CC2 [Compound 191, 6-chloro-2-cyclopropyl-4-[3-(1,3-dimethylpyrazol-4-yl)-7,8-dihydro-5H-1,6-naphthyridin-6-yl]quinazoline] | 80 | 1070 | –
9 | Clc1ccc2nc(C3CC3)nc(N3CCc4ncc(N5CCCn6nccc65)cc4C3)c2c1 [Compound 192, 6-chloro-2-cyclopropyl-4-[3-(6,7-dihydro-5H-pyrazolo[1,5-a]pyrimidin-4-yl)-7,8-dihydro-5H-1,6-naphthyridin-6-yl]quinazoline] | 100 | 410 | –
10 | Cc1nn(C)cc1-c1cnc2c(c1)CN(c1nc(C3CC3)nc3ccc(F)cc13)CC2 [Compound 193, 2-cyclopropyl-4-[3-(1,3-dimethylpyrazol-4-yl)-7,8-dihydro-5H-1,6-naphthyridin-6-yl]-6-fluoro-quinazoline] | 85 | 950 | –
11 | Fc1ccc2nc(C3CC3)nc(N3CCc4ncc(N5CCCn6nccc65)cc4C3)c2c1 [Compound 194, 2-cyclopropyl-4-[3-(6,7-dihydro-5H-pyrazolo[1,5-a]pyrimidin-4-yl)-7,8-dihydro-5H-1,6-naphthyridin-6-yl]-6-fluoro-quinazoline] | 10 | 230 | –
12 | Fc1ccc2nc(Oc3ccccc3F)nc(N3CCc4ncc(C(F)(F)F)cc4C3)c2c1 [Compound 199, 6-fluoro-2-(2-fluorophenoxy)-4-[3-(trifluoromethyl)-7,8-dihydro-5H-1,6-naphthyridin-6-yl]quinazoline] | 96 | 3370 | –
13 | Fc1ccc2nc(Nc3ccccc3F)nc(N3CCc4ncc(C(F)(F)F)cc4C3)c2c1 [Compound 200, 6-fluoro-N-(2-fluorophenyl)-4-[3-(trifluoromethyl)-7,8-dihydro-5H-1,6-naphthyriidn-6-yl]quinazolin-2-amine] | 63 | > 10000 | –
14 | [2H]c1nc(N2CCc3ncc(N4CCOc5ncccc54)cc3C2)c2cc(C)ccc2n1 [Compound 204, 1-[6-(2-deuterio-6-methyl-quinazolin-4-yl)-7,8-dihydro-5H-1,6-naphthyridin-3-yl]-2,3-dihydropyrido[2,3-b][1,4]oxazine] | 93 | 80 | –

Second part, led by results:

Row | Emax at 30 µM [%] | EC50 [nM] | Structure (SMILES) | Emax (CHO-K1) [%]
15 | 98 | 340 | COc1nc(N2CCc3ncc(C(F)(F)F)cc3C2)c2cc(C)ccc2n1 [Compound 179, 2-methoxy-6-methyl-4-[3-(trifluoromethyl)-7,8-dihydro-5H-1,6-naphthyridin-6-yl]quinazoline] | –
16 | 85 | 550 | Cc1ccc2nc(Nc3ccnn3C)nc(N3CCc4ncc(C(F)(F)F)cc4C3)c2c1 [Compound 181, 6-methyl-N-(2-methylpyrazol-3-yl)-4-[3-(trifluoromethyl)-7,8-dihydro-5H-1,6-naphthyridin-6-yl]quinazolin-2-amine] | –
17 | 71 | 260 | Fc1ccc2nc(N3CCOCC3)nc(N3CCc4ncc(C(F)(F)F)cc4C3)c2c1 [Compound 183, 4-[6-fluoro-4-[3-(trifluoromethyl)-7,8-dihydro-5H-1,6-naphthyridin-6-yl]quinazolin-2-yl]morpholine] | –
18 | 93 | 1380 | Fc1ccc2nc(NC3CC(F)(F)C3)nc(N3CCc4ncc(C(F)(F)F)cc4C3)c2c1 [Compound 184, N-(3,3-difluorocyclobutyl)-6-fluoro-4-[3-(trifluoromethyl)-7,8-dihydro-5H-1,6-naphthyridin-6-yl]quinazolin-2-amine] | –
19 | 75 | > 10000 | FC(F)(F)c1cnc2c(c1)CN(c1nc(C3CC3)nc3ccc(Cl)cc13)CC2 [Compound 186, 6-chloro-2-cyclopropyl-4-[3-(trifluoromethyl)-7,8-dihydro-5H-1,6-naphthyridin-6-yl]quinazoline] | –
20 | 95 | 730 | Fc1ccc2nc(N3CCCC3)nc(N3CCc4ncc(C(F)(F)F)cc4C3)c2c1 [Compound 195, 6-fluoro-2-pyrrolidin-1-yl-4-[3-(trifluoromethyl)-7,8-dihydro-5H-1,6-naphthyridin-6-yl]quinazoline] | –
21 | 98 | 410 | Fc1ccc2nc(NC3CC3)nc(N3CCc4ncc(C(F)(F)F)cc4C3)c2c1 [Compound 196, N-cyclopropyl-6-fluoro-4-[3-(trifluoromethyl)-7,8-dihydro-5H-1,6-naphthyridin-6-yl]quinazolin-2-amine] | –
22 | 98 | 340 | Cn1nccc1Nc1nc(N2CCc3ncc(C(F)(F)F)cc3C2)c2cc(F)ccc2n1 [Compound 197, 6-fluoro-N-(2-methylpyrazol-3-yl)-4-[3-(trifluoromethyl)-7,8-dihydro-5H-1,6-naphthyridin-6-yl]quinazolin-2-amine] | –
23 | 94 | 670 | Fc1ccc2nc(N3CCOc4ncccc43)nc(N3CCc4ncc(C(F)(F)F)cc4C3)c2c1 [Compound 198, 1-[6-fluoro-4-[3-(trifluoromethyl)-7,8-dihydro-5H-1,6-naphthyridin-6-yl]quinazolin-2-yl]-2,3-dihydropyrido[2,3-b][1,4]oxazine] | –
24 | 97 | 290 | OC1(C2CC2)CN(c2nc(N3CCc4ncc(C(F)(F)F)cc4C3)c3cc(F)ccc3n2)C1 [Compound 201, 3-cyclopropyl-1-[6-fluoro-4-[3-(trifluoromethyl)-7,8-dihydro-5H-1,6-naphthyridin-6-yl]quinazolin-2-yl]azetidin-3-ol] | –
25 | 92 | 300 | Fc1ccc2nc(NC3CCOC3)nc(N3CCc4ncc(C(F)(F)F)cc4C3)c2c1 (centres unmarked) [Compound 202, 6-fluoro-N-tetrahydrofuran-3-yl-4-[3-(trifluoromethyl)-7,8-dihydro-5H-1,6-naphthyridin-6-yl]quinazolin-2-amine] | –
26 | 90 | 410 | CC(C)(O)CNc1nc(N2CCc3ncc(C(F)(F)F)cc3C2)c2cc(F)ccc2n1 [Compound 203, 1-[[6-fluoro-4-[3-(trifluoromethyl)-7,8-dihydro-5H-1,6-naphthyridin-6-yl]quinazolin-2-yl]amino]-2-methyl-propan-2-ol] | –
27 | 63 | 670 | Cc1ccc2nc(N3CCOCC3)nc(N3CCc4ncc(C(F)(F)F)cc4C3)c2c1 [Compound 205, 4-[6-methyl-4-[3-(trifluoromethyl)-7,8-dihydro-5H-1,6-naphthyridin-6-yl]quinazolin-2-yl]morpholine] | –
28 | 74 | 720 | Cc1ccc2nc(N3CCCC3)nc(N3CCc4ncc(C(F)(F)F)cc4C3)c2c1 [Compound 206, 6-methyl-2-pyrrolidin-1-yl-4-[3-(trifluoromethyl)-7,8-dihydro-5H-1,6-naphthyridin-6-yl]quinazoline] | –
